Reference: US20190365843A1, “Antimicrobial Activity of Bioactive Compounds and Their Derivatives” (priority 2018, published 2019)

What was measured:
Candida abicans = experiment: Agar diffusion growth inhibition zone, Candida abicans; assay type: cell-based, Candida albicans; conditions: 6 mm = no activity
Method: (§1) Among the bacterial agents tested Gram positive and Gram negative bacterial groups represented by Staphylococcus aureus and Enterococcus species and pathogenic members of Enterobacteriaceae, Vibronaceae, Aeromonadaceae, Pseudomonadaceae were tested. Freshly sub-cultured bacterial strains were inoculated into peptone water and incubated for 4 hours at 37° C. and adjusted to a turbidity of 0.5 (Gram Negative Bacilli), 1 (Gram Positive Cocci) and 4 (Pus cells, GNB, & few Budding yeast cells) Mc Farland standards (10^8 CFU/ml) respectively.
(§2) The different bioactive compounds and their derivatives were dissolved and diluted with solvents (DMSO), number of subsequent dilutions was performed to obtain different concentrations of the bioactive compounds and their derivatives. (Working Concentrations).
(§3) Agar well diffusion method is widely used to evaluate the antimicrobial activity of plants or other synthetic products. The suspension (microbial inoculum) was used to inoculate into Muller Hinton Agar Petri plates by lawn culture. Well (diameter 6 mm) were punched in the agar by sterile borer and filled with 50 μl of dissolved extracts. Plates were incubated in incubator at 37° C. for 24 hours and measured the growth inhibition zone diameters in mm compared with that of control (DMSO) showing no growth.
(§4) The bioactive compounds were tested with desired concentrations in 6 mm filter paper discs (Whatman, no. 3) were impregnated with 10 μL of each of the different dilutions. The discs were allowed to remain at room temperature until complete diluent evaporation and kept under refrigeration until ready to be used. 10 μL of diluents used to products were used as control. Tests were performed by Agar disk-diffusion testing method, which is the official method used in many clinical microbiology laboratories for routine antimicrobial susceptibility testing.
(§5) Similar to the procedure used in Agar well diffusion method, the suspension (microbial inoculum) was used to inoculate into Muller Hinton Agar Petri plates by lawn culture. Then, filter paper discs (about 6 mm in diameter), containing the test compound at a desired concentration, were placed on the agar surface. The Petri dishes were incubated under suitable incubation conditions.
(§6) Bioactive compounds showing zone of inhibition beyond the size of 6 mm are considered to be having an anti-microbial activity.

E. coli ATCC 25922 = experiment: Agar diffusion growth inhibition zone, E. coli ATCC 25922; assay type: cell-based; conditions: Escherichia coli, 6 mm = no activity; for zone of inhibition at 100 mg/mL: ATCC25922, 100 mg; for zone of inhibition at 150 mg/mL: ATCC25922, 150 mg
Method: as §1, §2, §3, §4, §5, §6

Aeromonas sp. = experiment: Agar diffusion growth inhibition zone, Aeromonas sp.; assay type: cell-based, Aeromonas species; conditions: Aeromonas sp., 6 mm = no activity
Method: as §1, §2, §3, §4, §5, §6

Shigella sp. = experiment: Agar diffusion growth inhibition zone, Shigella sp.; assay type: cell-based, Shigella species; conditions: Shigella
Method: (§7) Agar well diffusion method is widely used to evaluate the antimicrobial activity of plants or other synthetic products. The suspension (microbial inoculum) was used to inoculate into Muller Hinton Agar Petri plates by lawn culture. Well (diameter 6 mm) were punched in the agar by sterile borer and filled with 50 μl of dissolved extracts. Plates were incubated in incubator at 37° C. for 24 hours and measured the growth inhibition zone diameters in mm compared with that of control (DMSO) showing no growth. The antimicrobial agent diffuses in the agar medium and inhibits the growth of the microbial strain tested (Valgas et al., (2016) Methods for in vitro evaluating antimicrobial activity: A review. Journal of Pharmaceutical Analysis. 6(2):71-9).
(§8) Similar to the procedure used in Agar well diffusion method, the suspension (microbial inoculum) was used to inoculate into Muller Hinton Agar Petri plates by lawn culture. Then, filter paper discs (about 6 mm in diameter), containing the test compound at a desired concentration, were placed on the agar surface. The Petri dishes were incubated under suitable incubation conditions. Generally, antimicrobial agent diffuses into the agar and inhibits germination and growth of the test microorganism and then the diameters of inhibition growth zones are measured (Valgas et al., (2007) Screening methods to determine antibacterial activity of natural products. Brazilian Journal of Microbiology. 38:369-80; Balouiri M et al., (2016) Methods for in vitro evaluating antimicrobial activity: A review. Journal of Pharmaceutical Analysis. 6(2):71-9).

Enterococcus sp. = experiment: Agar diffusion growth inhibition zone, Enterococcus sp.; assay type: cell-based, Enterococcus species; conditions: 6 mm = no activity
Method: as §1, §2, §3, §4, §5, §6

Klebsiella sp. = experiment: Agar diffusion growth inhibition zone, Klebsiella sp.; assay type: cell-based, Klebsiella species; conditions: 6 mm = no activity
Method: as §1, §2, §3, §4, §5, §6

S. aureus = experiment: Agar diffusion growth inhibition zone, S. aureus; assay type: cell-based, Staphylococcus aureus; conditions: Staphylococcus aureus, 6 mm = no activity
Method: as §1, §2, §3, §4, §5, §6

Salmonella typhimurium = experiment: Agar diffusion growth inhibition zone, Salmonella typhimurium; assay type: cell-based; conditions: Salmonella enterica, 6 mm = no activity
Method: as §1, §2, §3, §4, §5, §6

Pseudomonas sp. = experiment: Agar diffusion growth inhibition zone, Pseudomonas sp.; assay type: cell-based, Pseudomonas species; conditions: Pseudomonas
Method: as §7, §8

Vibrio cholera = experiment: Agar diffusion growth inhibition zone, Vibrio cholera; assay type: cell-based, Vibrio cholerae; conditions: Vibrio cholerae
Method: as §7, §8

Citrobacter sp. = experiment: Agar diffusion growth inhibition zone, Citrobacter sp.; assay type: cell-based, Citrobacter species; conditions: 6 mm = no activity
Method: as §1, §2, §3, §4, §5, §6

EAEC = experiment: Agar diffusion growth inhibition zone, EAEC; assay type: cell-based, Enteroaggregative E. coli; conditions: for zone of inhibition at 100 mg/mL / zone of inhibition at 150 mg/mL: Escherichia coli, 6 mm = no activity
Method: as §1, §2, §3, §4, §5, §6

Pleisiomonas sp. = experiment: Agar diffusion growth inhibition zone, Pleisiomonas sp.; assay type: cell-based, Pleisiomonas species; conditions: for zone of inhibition at 100 mg/mL / zone of inhibition at 150 mg/mL: Pleisiomonas sp., 6 mm = no activity; for inhibition of growth: Plesiomonas species
Method: as §1, §2, §3, §4, §5, §6

ETEC = experiment: Agar diffusion growth inhibition zone, ETEC; assay type: cell-based, Enterotoxigenic E. coli; conditions: for inhibition of growth: ETEC; for zone of inhibition at 100000 µg/disc / zone of inhibition at 150000 µg/disc: Escherichia coli
Method: as §7, §8

Proteus sp. = experiment: Agar diffusion growth inhibition zone, Proteus sp.; assay type: cell-based, Proteus species; conditions: for zone of inhibition at 150 mg/mL: Proteus sp., 6 mm = no activity
Method: as §1, §2, §3, §4, §5, §6

Row | Compound | zone of inhibition at 100 mg/mL (Candida abicans) | zone of inhibition at 100 mg/mL (E. coli ATCC 25922) | zone of inhibition at 100 mg/mL (Aeromonas sp.) | zone of inhibition at 100000 µg/disc (Shigella sp.) | zone of inhibition at 100 mg/mL (Enterococcus sp.) | zone of inhibition at 100 mg/mL (Klebsiella sp.) | zone of inhibition at 100 mg/mL (S. aureus) | zone of inhibition at 100 mg/mL (Salmonella typhimurium) | zone of inhibition at 100000 µg/disc (Pseudomonas sp.) | zone of inhibition at 100000 µg/disc (Vibrio cholera) | zone of inhibition at 100 mg/mL (Citrobacter sp.) | zone of inhibition at 100 mg/mL (EAEC) | zone of inhibition at 100 mg/mL (Pleisiomonas sp.) | zone of inhibition at 150 mg/mL (Candida abicans) | zone of inhibition at 150 mg/mL (E. coli ATCC 25922) | zone of inhibition at 150 mg/mL (Aeromonas sp.) | zone of inhibition at 150000 µg/disc (Shigella sp.) | zone of inhibition at 150 mg/mL (Enterococcus sp.) | zone of inhibition at 150 mg/mL (Klebsiella sp.) | zone of inhibition at 150 mg/mL (S. aureus) | also measured
1 | COc1cc(/C=C/C(=O)COC(=O)/C=C/c2ccc(O)cc2)ccc1O [compound 11, Demethoxycalebin- A1] | 6 mm | 6 mm | 6 mm | 6 mm | 6 mm | 6 mm | 6 mm | 6 mm | 6 mm | 6 mm | 6 mm | 6 mm | 6 mm | – | – | – | – | – | – | – | –
2 | O=C(/C=C/c1ccc(O)cc1)COC(=O)/C=C/c1ccc(O)cc1 [compound 13, Bisdemethoxycalebin- A] | 6 mm | 6 mm | 6 mm | 6 mm | 6 mm | 6 mm | 6 mm | 6 mm | 6 mm | 6 mm | 6 mm | 6 mm | 9 mm | – | – | – | – | – | – | – | inhibition of growth (Pleisiomonas sp.): inhibited
3 | COc1cc(/C=C/C(=O)COC(=O)/C=C/c2ccc(O)c(OC)c2)ccc1O [compound 5, Calebin-A] | 6 mm | 6 mm | 6 mm | 6 mm | 6 mm | 6 mm | 6 mm | 6 mm | 6 mm | 6 mm | 6 mm | 7 mm | 6 mm | 6 mm | 6 mm | 6 mm | 6 mm | 6 mm | 6 mm | 6 mm | inhibition of growth (ETEC): significantly inhibited the growth; zone of inhibition at 100000 µg/disc (ETEC): 11 mm; zone of inhibition at 150000 µg/disc (ETEC): 11 mm; zone of inhibition at 150 mg/mL (Proteus sp.): 6 mm; zone of inhibition at 150 mg/mL (Salmonella typhimurium): 6 mm; zone of inhibition at 150000 µg/disc (Pseudomonas sp.): 6 mm; zone of inhibition at 150000 µg/disc (Vibrio cholera): 6 mm; zone of inhibition at 150 mg/mL (Citrobacter sp.): 6 mm; inhibition of growth (EAEC): inhibited; zone of inhibition at 150 mg/mL (EAEC): 7 mm; zone of inhibition at 150 mg/mL (Pleisiomonas sp.): 6 mm
4 | COc1cc(CCC(=O)/C=C(\N)CCc2ccc(O)c(OC)c2)ccc1O [compound 9, Amino- tetrahydrocurcumin] | 6 mm | 6 mm | 6 mm | 6 mm | 6 mm | 6 mm | 6 mm | 6 mm | 6 mm | 6 mm | 6 mm | 6 mm | 6 mm | 6 mm | 6 mm | 6 mm | 6 mm | 6 mm | 6 mm | 6 mm | zone of inhibition at 100000 µg/disc (ETEC): 9 mm; zone of inhibition at 150000 µg/disc (ETEC): 9 mm; zone of inhibition at 150 mg/mL (Proteus sp.): 6 mm; zone of inhibition at 150 mg/mL (Salmonella typhimurium): 6 mm; zone of inhibition at 150000 µg/disc (Pseudomonas sp.): 6 mm; zone of inhibition at 150000 µg/disc (Vibrio cholera): 6 mm; zone of inhibition at 150 mg/mL (Citrobacter sp.): 6 mm; zone of inhibition at 150 mg/mL (EAEC): 6 mm; zone of inhibition at 150 mg/mL (Pleisiomonas sp.): 6 mm
5 | COc1cc(/C=C/C(=O)OCC(=O)/C=C/c2ccc(O)cc2)ccc1O [compound 12, Demethoxycalebin- A2] | 6 mm | 6 mm | 6 mm | 6 mm | 6 mm | 6 mm | 6 mm | 6 mm | 6 mm | 6 mm | 6 mm | 6 mm | 10 mm | – | – | – | – | – | – | – | –
6 | O=C(/C=C/c1ccc(O)cc1)CC(=O)/C=C/c1ccc(O)cc1 [compound 3, Bis- demethoxycurcumin] | 6 mm | 6 mm | 6 mm | 6 mm | 6 mm | 6 mm | 6 mm | 6 mm | 6 mm | 6 mm | 6 mm | 6 mm | 9 mm | 6 mm | 6 mm | 6 mm | 6 mm | 6 mm | 6 mm | 6 mm | inhibition of growth (ETEC): significantly inhibited the growth; zone of inhibition at 100000 µg/disc (ETEC): 9 mm; zone of inhibition at 150000 µg/disc (ETEC): 9 mm; zone of inhibition at 150 mg/mL (Proteus sp.): 7 mm; zone of inhibition (Proteus sp.; Proteus species, at both concentrations of 100 mg and 150 mg): 7 mm; zone of inhibition at 150 mg/mL (Salmonella typhimurium): 6 mm; zone of inhibition at 150000 µg/disc (Pseudomonas sp.): 6 mm; zone of inhibition at 150000 µg/disc (Vibrio cholera): 6 mm; zone of inhibition at 150 mg/mL (Citrobacter sp.): 6 mm; zone of inhibition at 150 mg/mL (EAEC): 6 mm; zone of inhibition at 150 mg/mL (Pleisiomonas sp.): 9 mm; inhibition of growth (Pleisiomonas sp.): inhibited
7 | COc1cc(CCc2cc(CCc3ccc(O)c(OC)c3)on2)ccc1O [compound 8, Tetrahydrocurcumin Isoxazole] | 6 mm | 6 mm | 6 mm | 6 mm | 6 mm | 6 mm | 6 mm | 6 mm | 6 mm | 6 mm | 6 mm | 8 mm | 6 mm | 6 mm | 6 mm | 6 mm | 6 mm | 6 mm | 6 mm | 6 mm | zone of inhibition at 150 mg/mL (Proteus sp.): 6 mm; zone of inhibition at 150 mg/mL (Salmonella typhimurium): 6 mm; zone of inhibition at 150000 µg/disc (Pseudomonas sp.): 6 mm; zone of inhibition at 150000 µg/disc (Vibrio cholera): 6 mm; zone of inhibition at 150 mg/mL (Citrobacter sp.): 6 mm; zone of inhibition at 150 mg/mL (EAEC): 8 mm; zone of inhibition at 150 mg/mL (Pleisiomonas sp.): 6 mm
8 | Demethoxycalebin-A | – | – | – | – | – | – | – | – | – | – | – | – | – | – | – | – | – | – | – | – | inhibition of growth (Pleisiomonas sp.): inhibited
